Reference: ChEMBL document CHEMBL3045862, “PRE-CLINICAL AND CLINICAL PHARMACOKINETICS OF THE DIASTEREOMERS OF ARTEETHER, A POTENT ANTIMALARIAL” (Med Chem Res, 2004)

Columns and labels:
[1] = Volume of distribution in Macaca mulatta (Rhesus monkey) at 4 mg/kg, iv; format: ADME, organism-based; set-up: dose 4 mg/kg, route intravenous; settings: in vivo
Rattus norvegicus [2] = assay: Dose normalized AUC in Rattus norvegicus Sprague-Dawley (rat) at 30 mg/kg, po; format: ADME, organism-based; set-up: dose 30 mg/kg, route oral; settings: in vivo
[3] = Cmax in Rattus norvegicus Sprague-Dawley (rat) at 9 mg/kg, administered intramuscularly; format: ADME, organism-based; set-up: dose 9 mg/kg, route intramuscular; settings: in vivo, im
Rattus norvegicus [4] = assay: AUC (0 to infinity) in Rattus norvegicus Sprague-Dawley (rat) at 9 mg/kg, administered intramuscularly; format: ADME, organism-based, Plasma; set-up: time infinity, dose 9 mg/kg, route intramuscular; settings: in vivo, im
[5] = Tmax in Macaca mulatta (Rhesus monkey) at 50 mg/kg, po; format: ADME, organism-based; set-up: dose 50 mg/kg, route oral; settings: in vivo
Rattus norvegicus [6] = assay: Clearance in Rattus norvegicus Sprague-Dawley (rat) at 2 mg/kg, iv; format: ADME, organism-based; set-up: dose 2 mg/kg, route intravenous; settings: in vivo
[7] = Cmax in Macaca mulatta (Rhesus monkey) at 7.5 mg/kg, administered intramuscularly; format: ADME, organism-based; set-up: dose 7.5 mg/kg, route intramuscular; settings: in vivo, im
Rattus norvegicus [8] = assay: Dose normalized AUC in Rattus norvegicus Sprague-Dawley (rat) at 9 mg/kg, administered intramuscularly; format: ADME, organism-based; set-up: dose 9 mg/kg, route intramuscular; settings: in vivo, im
[9] = Volume of distribution in Rattus norvegicus Sprague-Dawley (rat) at 2 mg/kg, iv; format: ADME, organism-based; set-up: dose 2 mg/kg, route intravenous; settings: in vivo
[10] = Tmax in Rattus norvegicus Sprague-Dawley (rat) at 17.5 mg/kg, po; format: ADME, organism-based; set-up: dose 17.5 mg/kg, route oral; settings: in vivo
[11] = Elimination half life in Rattus norvegicus Sprague-Dawley (rat) at 17.5 mg/kg, po; format: ADME, organism-based; set-up: dose 17.5 mg/kg, route oral; settings: in vivo, read-out: beta t1/2 (converted)
[12] = Elimination half life in Rattus norvegicus Sprague-Dawley (rat) at 30 mg/kg, po; format: ADME, organism-based; set-up: dose 30 mg/kg, route oral; settings: in vivo, read-out: beta t1/2 (converted)
[13] = Mean residence time in Homo sapiens (human) at 150 mg; format: ADME, organism-based; settings: in vivo
Rhesus monkey [14] = assay: Clearance in Macaca mulatta (Rhesus monkey) at 7.5 mg/kg, administered intramuscularly; format: ADME, organism-based; set-up: dose 7.5 mg/kg, route intramuscular; settings: in vivo, im
Rattus norvegicus [15] = assay: AUC (0 to infinity) in Rattus norvegicus Sprague-Dawley (rat) at 17.5 mg/kg, administered intramuscularly; format: ADME, organism-based, Plasma; set-up: dose 17.5 mg/kg, route intramuscular, time infinity; settings: in vivo, im
Rhesus monkey [16] = assay: Dose normalized AUC in Macaca mulatta (Rhesus monkey) at 4 mg/kg, iv; format: ADME, organism-based; set-up: dose 4 mg/kg, route intravenous; settings: in vivo
Rattus norvegicus [17] = assay: Dose normalized AUC in Rattus norvegicus Sprague-Dawley (rat) at 9 mg/kg, po; format: ADME, organism-based; set-up: dose 9 mg/kg, route oral; settings: in vivo
[18] = Cmax in Homo sapiens (human) at 150 mg; format: ADME, organism-based; set-up: dose 150 mg; settings: in vivo
Rattus norvegicus [19] = assay: AUC (0 to infinity) in Rattus norvegicus Sprague-Dawley (rat) at 30 mg/kg, po; format: ADME, organism-based, Plasma; set-up: time infinity, dose 30 mg/kg, route oral; settings: in vivo
Rattus norvegicus [20] = assay: Dose normalized AUC in Rattus norvegicus Sprague-Dawley (rat) at 30 mg/kg, administered intramuscularly; format: ADME, organism-based; set-up: dose 30 mg/kg, route intramuscular; settings: in vivo, im
[21] = Elimination half life in Macaca mulatta (Rhesus monkey) at 4 mg/kg, iv; format: ADME, organism-based; set-up: dose 4 mg/kg, route intravenous; settings: in vivo, read-out: beta t1/2 (converted)
Rhesus monkey [22] = assay: Clearance in Macaca mulatta (Rhesus monkey) at 4 mg/kg, iv; format: ADME, organism-based; set-up: dose 4 mg/kg, route intravenous; settings: in vivo
[23] = Tmax in Rattus norvegicus Sprague-Dawley (rat) at 17.5 mg/kg, administered intramuscularly; format: ADME, organism-based; set-up: dose 17.5 mg/kg, route intramuscular; settings: in vivo, im
[24] = Elimination half life in Macaca mulatta (Rhesus monkey) at 7.5 mg/kg, administered intramuscularly; format: ADME, organism-based; set-up: dose 7.5 mg/kg, route intramuscular; settings: in vivo, im, read-out: beta t1/2 (converted)
Rattus norvegicus [25] = assay: AUC (0 to infinity) in Rattus norvegicus Sprague-Dawley (rat) at 2 mg/kg, iv; format: ADME, organism-based, Plasma; set-up: time infinity, dose 2 mg/kg, route intravenous; settings: in vivo
Rattus norvegicus [26] = assay: Clearance in Rattus norvegicus Sprague-Dawley (rat) at 17.5 mg/kg, po; format: ADME, organism-based; set-up: dose 17.5 mg/kg, route oral; settings: in vivo
Rhesus monkey [27] = assay: Dose normalized AUC in Macaca mulatta (Rhesus monkey) at 50 mg/kg, po; format: ADME, organism-based; set-up: dose 50 mg/kg, route oral; settings: in vivo
[28] = Mean residence time in Macaca mulatta (Rhesus monkey) at 7.5 mg/kg, administered intramuscularly; format: ADME, organism-based; set-up: dose 7.5 mg/kg, route intramuscular; settings: in vivo, im
Rattus norvegicus [29] = assay: Clearance in Rattus norvegicus Sprague-Dawley (rat) at 30 mg/kg, po; format: ADME, organism-based; set-up: dose 30 mg/kg, route oral; settings: in vivo
[30] = Cmax in Macaca mulatta (Rhesus monkey) at 50 mg/kg, po; format: ADME, organism-based; set-up: dose 50 mg/kg, route oral; settings: in vivo
[31] = Cmax in Rattus norvegicus Sprague-Dawley (rat) at 17.5 mg/kg, administered intramuscularly; format: ADME, organism-based; set-up: dose 17.5 mg/kg, route intramuscular; settings: in vivo, im
Rattus norvegicus [32] = assay: AUC (0 to infinity) in Rattus norvegicus Sprague-Dawley (rat) at 17.5 mg/kg, po; format: ADME, organism-based, Plasma; set-up: time infinity, dose 17.5 mg/kg, route oral; settings: in vivo
[33] = Elimination half life in Macaca mulatta (Rhesus monkey) at 50 mg/kg, po; format: ADME, organism-based; set-up: dose 50 mg/kg, route oral; settings: in vivo, read-out: beta t1/2 (converted)
Rattus norvegicus [34] = assay: Volume of distribution in Rattus norvegicus Sprague-Dawley (rat) at 17.5 mg/kg, administered intramuscularly; format: ADME, organism-based; set-up: dose 17.5 mg/kg, route intramuscular; settings: in vivo, im
Rhesus monkey [35] = assay: Volume of distribution in Macaca mulatta (Rhesus monkey) at 7.5 mg/kg, administered intramuscularly; format: ADME, organism-based; set-up: dose 7.5 mg/kg, route intramuscular; settings: in vivo, im
[36] = Tmax in Macaca mulatta (Rhesus monkey) at 7.5 mg/kg, administered intramuscularly; format: ADME, organism-based; set-up: dose 7.5 mg/kg, route intramuscular; settings: in vivo, im
[37] = Cmax in Rattus norvegicus Sprague-Dawley (rat) at 30 mg/kg, administered intramuscularly; format: ADME, organism-based; set-up: dose 30 mg/kg, route intramuscular; settings: in vivo, im
[38] = Mean residence time in Rattus norvegicus Sprague-Dawley (rat) at 30 mg/kg, po; format: ADME, organism-based; set-up: dose 30 mg/kg, route oral; settings: in vivo
[39] = Mean residence time in Rattus norvegicus Sprague-Dawley (rat) at 17.5 mg/kg, po; format: ADME, organism-based; set-up: dose 17.5 mg/kg, route oral; settings: in vivo
Rattus norvegicus [40] = assay: Clearance in Rattus norvegicus Sprague-Dawley (rat) at 9 mg/kg, po; format: ADME, organism-based; set-up: dose 9 mg/kg, route oral; settings: in vivo
[41] = Mean residence time in Rattus norvegicus Sprague-Dawley (rat) at 9 mg/kg, po; format: ADME, organism-based; set-up: dose 9 mg/kg, route oral; settings: in vivo

`CCO[C@@H]1O[C@@H]2O[C@]3(C)CC[C@H]4[C@H](C)CC[C@@H]([C@H]1C)[C@@]24OO3` [ALPHA-ARTEETHER] gave a Vd [1] of 4.1 L/kg, an AUC/dose (Rattus norvegicus [2]) of 12.4 ng·h/mL and a Cmax [3] of 52.3 ng/mL. It also gave an AUC (Rattus norvegicus [4]) of 1058.5 ng·h/mL, a Tmax [5] of 0.222 h and a CL (Rattus norvegicus [6]) of 75 mL/min/kg. The Cmax [7] was 96.7 ng/mL, the AUC/dose (Rattus norvegicus [8]) was 392 ng·h/mL and the Vd [9] was 3.6 L/kg. The Tmax [10] was 5 min, the half-life [11] was 1.7 h and the half-life [12] was 1.5 h. It also gave an MRT [13] of 19.6 h, a CL (Rhesus monkey [14]) of 61.7 mL/min/kg and an AUC (Rattus norvegicus [15]) of 1247.1 ng·h/mL. The AUC/dose (Rhesus monkey [16]) was 628.7 ng·h/mL, the AUC/dose (Rattus norvegicus [17]) was 27.3 ng·h/mL and the Cmax [18] was 60.7 ng/mL. The AUC (Rattus norvegicus [19]) was 111.5 ng·h/mL, the AUC/dose (Rattus norvegicus [20]) was 66.8 ng·h/mL and the half-life [21] was 1.8 h. The CL (Rhesus monkey [22]) was 26.7 mL/min/kg, the Tmax [23] was 0.5 h and the half-life [24] was 6.7 h. The AUC (Rattus norvegicus [25]) was 131.7 ng·h/mL, the CL (Rattus norvegicus [26]) was 1708 mL/min/kg and the AUC/dose (Rhesus monkey [27]) was 0.4 ng·h/mL. It also gave an MRT [28] of 9.2 h, a CL (Rattus norvegicus [29]) of 1330 mL/min/kg and a Cmax [30] of 3.9 ng/mL. The Cmax [31] was 184 ng/mL, the AUC (Rattus norvegicus [32]) was 50.9 ng·h/mL and the half-life [33] was 2.7 h. The Vd (Rattus norvegicus [34]) was 129.3 L/kg, the Vd (Rhesus monkey [35]) was 36.8 L/kg and the Tmax [36] was 1 h. For the same compound, the Cmax [37] was 93.3 ng/mL, the MRT [38] was 1.8 h and the MRT [39] was 1.9 h. It also gave a CL (Rattus norvegicus [40]) of 600 mL/min/kg and an MRT [41] of 4.3 h.
